Assays:
Details in all cases: incubation time: 72 h
SK-BR-3 = assay: normalised response (% of control), CellTiter-Glo; higher = more viable cells (100 = DMSO, 0 = benzethonium chloride kill control)
How it was run: (§1)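 CellTox Green fluorescence (485/520 nm) and, after 10 min at room temperature, CellTiter-Glo luminescence were read from breast cancer cell lines incubated 72 h in 384-well plates. Cells were seeded as 20 µl suspension onto compound at 5 concentrations in 10-fold steps over a 10,000-fold range chosen per compound. Each plate was normalised to 0.1 % DMSO (100) and a positive kill control (0). Values are normalised signals, one per concentration.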

CAL-85-1 [1] = assay: as above
How it was run: as §1

MCF-10A [2] = assay: as above
How it was run: as §1

CAL-148 [3] = assay: as above
How it was run: as §1

HDQ-P1 [4] = assay: as above
How it was run: as §1

MDA-MB-453 [5] = assay: as above
How it was run: as §1

MFM-223 [6] = assay: as above
How it was run: as §1

Hs578T [7] = assay: as above
How it was run: as §1

MDA-MB-468 [8] = assay: as above
How it was run: as §1

BT-549 [9] = assay: as above
How it was run: as §1

HCC1143 [10] = assay: as above
How it was run: as §1

BT-474 [11] = assay: as above
How it was run: as §1

HCC1937 [12] = assay: as above
How it was run: as §1

CAL-120 [13] = assay: as above
How it was run: as §1

HCC1599 [14] = assay: as above
How it was run: as §1

DU-4475 [15] = assay: as above
How it was run: as §1

MDA-MB-436 [16] = assay: as above
How it was run: as §1

CAL-51 [17] = assay: as above
How it was run: as §1

MDA-MB-231 [18] = assay: as above
How it was run: as §1

CAL-85-1 [19] = assay: normalised response (% of control), CellTox Green; higher = less cell death (100 = DMSO, 0 = benzethonium chloride kill control)
How it was run: as §1

MCF-10A [20] = assay: as above
How it was run: as §1

CAL-148 [21] = assay: as above
How it was run: as §1

HDQ-P1 [22] = assay: as above
How it was run: as §1

MDA-MB-453 [23] = assay: as above
How it was run: as §1

MFM-223 [24] = assay: as above
How it was run: as §1

Hs578T [25] = assay: as above
How it was run: as §1

MDA-MB-468 [26] = assay: as above
How it was run: as §1

BT-549 [27] = assay: as above
How it was run: as §1

HCC1143 [28] = assay: as above
How it was run: as §1

BT-474 [29] = assay: as above
How it was run: as §1

HCC1937 [30] = assay: as above
How it was run: as §1

CAL-120 [31] = assay: as above
How it was run: as §1

HCC1599 [32] = assay: as above
How it was run: as §1

DU-4475 [33] = assay: as above
How it was run: as §1

MDA-MB-436 [34] = assay: as above
How it was run: as §1

CAL-51 [35] = assay: as above
How it was run: as §1

MDA-MB-231 [36] = assay: as above
How it was run: as §1

C[C@]12CC[C@H](O)CC1=CC[C@@H]1[C@@H]2CC[C@]2(C)C(c3cccnc3)=CC[C@@H]12 [Abiraterone] (5000 nM)
normalised response (SK-BR-3): 104% | normalised response (CAL-85-1 [1]): 112% | normalised response (MCF-10A [2]): 109% | normalised response (CAL-148 [3]): 104% | normalised response (HDQ-P1 [4]): 104% | normalised response (MDA-MB-453 [5]): 112% | normalised response (MFM-223 [6]): 103% | normalised response (Hs578T [7]): 102% | normalised response (MDA-MB-468 [8]): 99.3% | normalised response (BT-549 [9]): 96.4% | normalised response (HCC1143 [10]): 97.1% | normalised response (BT-474 [11]): 97% | normalised response (HCC1937 [12]): 97.7% | normalised response (CAL-120 [13]): 103% | normalised response (HCC1599 [14]): 107% | normalised response (DU-4475 [15]): 99.6% | normalised response (MDA-MB-436 [16]): 100% | normalised response (CAL-51 [17]): 98.4% | normalised response (MDA-MB-231 [18]): 101% | normalised response (CAL-85-1 [19]): 77.8% | normalised response (MCF-10A [20]): 76.5% | normalised response (CAL-148 [21]): 87.5% | normalised response (HDQ-P1 [22]): 62.7% | normalised response (MDA-MB-453 [23]): 110% | normalised response (MFM-223 [24]): 101% | normalised response (Hs578T [25]): 116% | normalised response (MDA-MB-468 [26]): 151% | normalised response (BT-549 [27]): 128% | normalised response (HCC1143 [28]): 107% | normalised response (BT-474 [29]): 99.7% | normalised response (HCC1937 [30]): 120% | normalised response (CAL-120 [31]): 98% | normalised response (HCC1599 [32]): 113% | normalised response (DU-4475 [33]): 111% | normalised response (MDA-MB-436 [34]): 111% | normalised response (CAL-51 [35]): 96.6% | normalised response (MDA-MB-231 [36]): 122%

NS(=O)(=O)OC[C@@H]1C[C@@H](n2ccc3c(N[C@H]4CCc5ccccc54)ncnc32)C[C@@H]1O [Pevonedistat] (10000 nM)
normalised response (SK-BR-3): 30.4% | normalised response (CAL-85-1 [1]): 39.7% | normalised response (MCF-10A [2]): 91.2% | normalised response (CAL-148 [3]): 123% | normalised response (HDQ-P1 [4]): 72.6% | normalised response (MDA-MB-453 [5]): 66.2% | normalised response (MFM-223 [6]): 49.9% | normalised response (Hs578T [7]): 60.1% | normalised response (MDA-MB-468 [8]): 32.9% | normalised response (BT-549 [9]): 27% | normalised response (HCC1143 [10]): 33.9% | normalised response (BT-474 [11]): 45.5% | normalised response (HCC1937 [12]): 60.3% | normalised response (CAL-120 [13]): 47.8% | normalised response (HCC1599 [14]): 18.2% | normalised response (DU-4475 [15]): 0.22% | normalised response (MDA-MB-436 [16]): 21% | normalised response (CAL-51 [17]): 10% | normalised response (MDA-MB-231 [18]): 46% | normalised response (CAL-85-1 [19]): 53.7% | normalised response (MCF-10A [20]): 95.7% | normalised response (CAL-148 [21]): 90.7% | normalised response (HDQ-P1 [22]): 90.5% | normalised response (MDA-MB-453 [23]): 95.5% | normalised response (MFM-223 [24]): 99% | normalised response (Hs578T [25]): 91% | normalised response (MDA-MB-468 [26]): 56.6% | normalised response (BT-549 [27]): 78.3% | normalised response (HCC1143 [28]): 87.8% | normalised response (BT-474 [29]): 104% | normalised response (HCC1937 [30]): 107% | normalised response (CAL-120 [31]): 97% | normalised response (HCC1599 [32]): 72.6% | normalised response (DU-4475 [33]): 73.8% | normalised response (MDA-MB-436 [34]): 28.2% | normalised response (CAL-51 [35]): -20.5% | normalised response (MDA-MB-231 [36]): 100%
